According to patent publication US20250304644A1, “PEPTIDES TRIPLE AGONISTS OF GIP, GLP-1 AND GLP-2” (BAINAN BIOTECH APS, priority 2021, published 2025):
Where “and” joins values, the source holds several entries; their conditions need not be identical. Equal entries are not always repeated. Where two headings read alike, the source gives them in different places. *1 amine or outer side, *2 acyl side, *3 side chain or, on linkers, in order; H or OH if unused. Where no end group is shown, it is not given here. Side-chain parts run from the residue outwards. The star is where a group is joined. C18 diacid = O=C(O)CCCCCCCCCCCCCCCCC(=O)*; γGlu = O=C(O)[C@H](CCC(=O)[*:2])N[*:1]; AEEA = NCCOCCOCC(=O)O

How the values were obtained:
Assay type in all cases: cell-based
[1] = biological target: human glucagon receptor (GCGR) (Homo sapiens, UniProt P47871); assay: Gs activation measured as cAMP accumulation on human glucagon receptor (FIG. 1 radar plot); conditions: read-out: −p Log EC50 on human glucagon receptor (GCGR) (converted)
Source text: Here, the compounds 20, 21, 22, 28, 30, 31,32, 33, 34, 35 are shown in terms of their potencies in Gs activation, measured as CAMP accumulation, depicted in a radar plot. The numbers refer to −p Log EC50 values. […] The outer rings correspond to higher potencies, the inner rings correspond to lower potencies.

human SNAP-tagged GLP-1R = biological target: T1, human SNAP-tagged GLP-1R (Homo sapiens, UniProt P43220); assay: Receptor internalization assay, HEK293A cells expressing human SNAP-tagged GLP-1R; conditions: for Absolute hGLP-1R internalization (AUC): AUC of sigmoid curves up to 1 μM, 60 minutes at 37° C.; for Relative hGLP-1R internalization (%): relative to hGLP-1 = 100; for GLP-1R internalization (in words): compared to native GLP-1
T1 construct: expressed in transfected cells; host or cells: HEK293A

human SNAP-tagged GIPR = biological target: T2, human SNAP-tagged GIPR (Homo sapiens, UniProt P48546); assay: Receptor internalization assay, HEK293A cells expressing human SNAP-tagged GIPR; conditions: for GIPR internalization (in words): compared to native GIP
T2 construct: host or cells: HEK293A
T2 sequence (P48546 22-466): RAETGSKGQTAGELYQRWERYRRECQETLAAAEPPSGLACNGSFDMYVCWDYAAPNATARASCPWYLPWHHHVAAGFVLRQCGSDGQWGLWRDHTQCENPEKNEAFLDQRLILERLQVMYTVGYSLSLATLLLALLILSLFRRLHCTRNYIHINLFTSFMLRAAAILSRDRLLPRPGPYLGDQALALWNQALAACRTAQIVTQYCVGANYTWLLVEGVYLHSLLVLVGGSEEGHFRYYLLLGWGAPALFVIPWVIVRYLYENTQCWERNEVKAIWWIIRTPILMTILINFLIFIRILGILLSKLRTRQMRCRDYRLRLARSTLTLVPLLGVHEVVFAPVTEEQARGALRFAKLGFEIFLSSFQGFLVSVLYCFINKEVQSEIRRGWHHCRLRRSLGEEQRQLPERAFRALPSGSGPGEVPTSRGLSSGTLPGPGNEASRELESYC

human GIPR = biological target: T3, human GIPR (Homo sapiens, UniProt P48546); assay: cAMP assay (HitHunter) in transiently transfected COS-7 cells expressing human GIPR; conditions: for EC50: cAMP, COS-7 cells, human GIPR
T3 construct: host or cells: COS-7
T3 sequence (P48546 22-466): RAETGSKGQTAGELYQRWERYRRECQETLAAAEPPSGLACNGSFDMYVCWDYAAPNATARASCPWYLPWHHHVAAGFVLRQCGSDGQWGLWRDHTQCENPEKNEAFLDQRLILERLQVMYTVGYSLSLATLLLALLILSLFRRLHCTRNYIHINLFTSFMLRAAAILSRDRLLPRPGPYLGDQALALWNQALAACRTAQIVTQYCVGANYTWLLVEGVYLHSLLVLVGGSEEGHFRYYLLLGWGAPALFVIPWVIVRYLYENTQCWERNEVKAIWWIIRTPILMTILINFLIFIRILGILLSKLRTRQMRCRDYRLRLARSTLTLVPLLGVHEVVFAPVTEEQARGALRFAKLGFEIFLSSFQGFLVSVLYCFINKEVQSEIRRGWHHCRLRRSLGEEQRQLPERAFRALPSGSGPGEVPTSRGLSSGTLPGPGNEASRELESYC

human SNP-tagged GLP-2R = biological target: T4, human SNP-tagged GLP-2R (Homo sapiens, UniProt O95838); assay: Receptor internalization assay, HEK293A cells expressing human SNAP-tagged GLP-2R; conditions: for Absolute hGLP-2R internalization (AUC): AUC of sigmoid curves up to 1 μM, 60 minutes at 37° C.; for Relative hGLP-2R internalization (%): relative to native ligand = 100; for GLP-2R internalization (in words): compared to native GLP-2
T4 construct: expressed in transfected cells; host or cells: HEK293A
T4 sequence (O95838 1-553): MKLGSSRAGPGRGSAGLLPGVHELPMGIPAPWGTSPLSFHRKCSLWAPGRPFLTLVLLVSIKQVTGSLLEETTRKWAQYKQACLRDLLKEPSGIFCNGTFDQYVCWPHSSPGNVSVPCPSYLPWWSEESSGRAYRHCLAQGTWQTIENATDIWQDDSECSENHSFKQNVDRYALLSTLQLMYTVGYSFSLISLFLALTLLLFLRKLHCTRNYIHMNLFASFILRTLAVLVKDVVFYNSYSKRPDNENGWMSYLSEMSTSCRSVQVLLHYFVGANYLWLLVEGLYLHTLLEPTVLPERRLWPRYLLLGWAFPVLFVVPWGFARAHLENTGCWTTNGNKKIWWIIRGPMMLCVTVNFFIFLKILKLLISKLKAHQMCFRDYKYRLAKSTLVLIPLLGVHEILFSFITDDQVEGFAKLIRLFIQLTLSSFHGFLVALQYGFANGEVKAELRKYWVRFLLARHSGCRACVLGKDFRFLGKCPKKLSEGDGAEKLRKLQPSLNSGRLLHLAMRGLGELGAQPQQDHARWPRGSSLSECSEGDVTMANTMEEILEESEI

human GLP-2R = biological target: T5, human GLP-2R (Homo sapiens, UniProt O95838); assay: cAMP assay (HitHunter) in transiently transfected COS-7 cells expressing human GLP-2R; conditions: for EC50: cAMP, COS-7 cells, human GLP-2R
T5 construct: host or cells: COS-7
T5 sequence (O95838 1-553): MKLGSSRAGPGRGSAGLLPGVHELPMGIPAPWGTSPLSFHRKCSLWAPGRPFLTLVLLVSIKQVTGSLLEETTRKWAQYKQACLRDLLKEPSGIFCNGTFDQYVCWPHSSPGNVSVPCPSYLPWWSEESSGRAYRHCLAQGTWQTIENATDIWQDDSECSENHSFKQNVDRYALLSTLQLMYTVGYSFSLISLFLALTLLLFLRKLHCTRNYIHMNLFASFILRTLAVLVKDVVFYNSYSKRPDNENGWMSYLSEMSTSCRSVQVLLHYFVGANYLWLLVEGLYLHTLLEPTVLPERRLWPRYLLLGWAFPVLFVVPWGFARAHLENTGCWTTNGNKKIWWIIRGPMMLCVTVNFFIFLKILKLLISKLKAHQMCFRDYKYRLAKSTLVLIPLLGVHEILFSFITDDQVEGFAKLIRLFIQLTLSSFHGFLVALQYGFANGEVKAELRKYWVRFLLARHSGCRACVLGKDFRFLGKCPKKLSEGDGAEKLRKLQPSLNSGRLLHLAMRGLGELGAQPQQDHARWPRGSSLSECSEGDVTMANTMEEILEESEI

human GLP-1R = biological target: T6, human GLP-1R (Homo sapiens, UniProt P43220); assay: cAMP assay (HitHunter) in transiently transfected COS-7 cells expressing human GLP-1R; conditions: for EC50: cAMP, COS-7 cells, human GLP-1R
T6 construct: host or cells: COS-7

[2] = AUC of sigmoid curves up to 1 μM, 60 minutes at 37° C.
[3] = COS-7, normalized to highest concentration of the endogenous ligand, read-out: Efficacy GIPR (Emax)
[4] = COS-7, normalized to highest concentration of the endogenous ligand, read-out: Efficacy GLP-2R (Emax)
[5] = COS-7, normalized to highest concentration of the endogenous ligand, read-out: Efficacy GLP-1R (Emax)

human glucagon receptor (GCGR), sequence (P47871 26-477): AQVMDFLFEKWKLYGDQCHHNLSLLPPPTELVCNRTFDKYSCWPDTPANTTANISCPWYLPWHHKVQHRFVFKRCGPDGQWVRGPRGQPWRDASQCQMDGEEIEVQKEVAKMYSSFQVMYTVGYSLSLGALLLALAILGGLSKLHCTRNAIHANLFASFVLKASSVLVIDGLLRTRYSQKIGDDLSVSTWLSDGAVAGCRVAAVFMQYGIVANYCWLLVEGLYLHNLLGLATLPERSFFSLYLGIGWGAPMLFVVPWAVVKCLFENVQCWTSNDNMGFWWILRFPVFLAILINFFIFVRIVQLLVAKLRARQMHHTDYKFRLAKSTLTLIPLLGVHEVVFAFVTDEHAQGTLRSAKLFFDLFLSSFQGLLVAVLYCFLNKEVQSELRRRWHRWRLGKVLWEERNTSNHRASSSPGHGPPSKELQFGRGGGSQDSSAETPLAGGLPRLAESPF
T1 sequence (P43220 24-463): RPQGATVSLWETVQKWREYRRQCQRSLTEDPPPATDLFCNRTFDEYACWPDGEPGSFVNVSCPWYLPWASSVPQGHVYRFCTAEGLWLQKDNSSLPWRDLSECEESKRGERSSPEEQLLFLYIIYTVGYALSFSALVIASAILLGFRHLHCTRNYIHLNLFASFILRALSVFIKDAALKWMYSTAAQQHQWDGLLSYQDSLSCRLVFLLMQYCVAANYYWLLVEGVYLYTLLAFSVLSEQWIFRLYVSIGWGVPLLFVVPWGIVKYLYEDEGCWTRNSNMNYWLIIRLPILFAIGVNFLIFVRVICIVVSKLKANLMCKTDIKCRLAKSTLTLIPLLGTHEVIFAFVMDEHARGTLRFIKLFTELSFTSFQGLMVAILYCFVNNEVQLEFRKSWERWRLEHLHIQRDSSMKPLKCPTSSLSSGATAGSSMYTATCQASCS
T6 sequence (P43220 24-463): as above

Row | EC50 [1] | Absolute hGLP-1R internalization (AUC) (human SNAP-tagged GLP-1R) | Relative hGLP-1R internalization (%) (human SNAP-tagged GLP-1R) | Absolute hGLP-2R internalization (AUC) (human SNP-tagged GLP-2R) | Relative hGLP-2R internalization (%) (human SNP-tagged GLP-2R) | GLP-1R internalization (in words) (human SNAP-tagged GLP-1R) | Absolute hGIPR internalization (AUC) (human SNAP-tagged GIPR; [2]) | Relative hGIPR internalization (%) (human SNAP-tagged GIPR; relative to hGIP 1-42 = 100) | Emax (human GIPR; [3]) | EC50 (human GIPR) | GLP-2R internalization (in words) (human SNP-tagged GLP-2R) | Emax (human GLP-2R; [4]) | Emax (human GLP-1R; [5]) | Compound | GIPR internalization (in words) (human SNAP-tagged GIPR) | also measured
1 | > 100 nM | 91.8 | 109.14% | 39.4 | 81.0% | comparable to native GLP-1 and GLP-2 | 14.2 | 38% | 112% | 0.126 nM | comparable to native GLP-1 and GLP-2 | 100% | 112% | HADGTFTSDYSIILDK([AEEA-AEEA-γGlu-C18 diacid])LAARDFINWLIQTKGKKNDWKHNITQ-OH [Compound 20] | reduced internalization compared to native GIP | EC50 (human GLP-2R; read-out: logEC50 GLP-2R (converted)): 0.316 nM; EC50 (human GLP-1R; read-out: logEC50 GLP-1R (converted)): 0.0398 nM
2 | > 100 nM | 94.7 | 112.59% | 36.3 | 74.6% | comparable to native GLP-1 and GLP-2 | 10.2 | 28% | 104% | 0.398 nM | comparable to native GLP-1 and GLP-2 | 104% | 122% | HADGTFTSDYSTILDK([AEEA-AEEA-γGlu-C18 diacid])LAARDFINWLIQTKGKKNDWKHNITQ-OH [Compound 21] | reduced internalization compared to native GIP | EC50 (human GLP-2R; read-out: EC50 (nM) GLP-2R): 0.6 nM; EC50 (human GLP-1R; read-out: EC50 (nM) GLP-1R): 0.05 nM

Row | Compound | EC50 [1] | Absolute hGLP-1R internalization (AUC) (human SNAP-tagged GLP-1R) | Relative hGLP-1R internalization (%) (human SNAP-tagged GLP-1R) | Absolute hGLP-2R internalization (AUC) (human SNP-tagged GLP-2R) | Relative hGLP-2R internalization (%) (human SNP-tagged GLP-2R) | GLP-1R internalization (in words) (human SNAP-tagged GLP-1R) | Absolute hGIPR internalization (AUC) (human SNAP-tagged GIPR; [2]) | Relative hGIPR internalization (%) (human SNAP-tagged GIPR; relative to hGIP 1-42 = 100) | Emax (human GIPR; [3]) | EC50 (human GIPR) | GLP-2R internalization (in words) (human SNP-tagged GLP-2R) | Emax (human GLP-2R; [4]) | Emax (human GLP-1R; [5]) | GIPR internalization (in words) (human SNAP-tagged GIPR) | also measured
3 | CC[C@H](C)[C@H](NC(=O)[C@H](Cc1ccccc1)NC(=O)[C@H](CC(=O)O)NC(=O)[C@H](CCCNC(=N)N)NC(=O)[C@H](C)NC(=O)[C@H](C)NC(=O)[C@H](CC(C)C)NC(=O)[C@H](CC(N)=O)NC(=O)[C@H](CC(=O)O)NC(=O)[C@H](CC(C)C)NC(=O)C(C)(C)NC(=O)[C@@H](NC(=O)[C@H](CO)NC(=O)[C@H](Cc1ccc(O)cc1)NC(=O)[C@H](CC(=O)O)NC(=O)[C@H](CO)NC(=O)[C@@H](NC(=O)[C@H](Cc1ccccc1)NC(=O)[C@@H](NC(=O)CNC(=O)[C@H](CC(=O)O)NC(=O)[C@H](C)NC(=O)[C@@H](N)Cc1c[nH]cn1)[C@@H](C)O)[C@@H](C)CC)[C@@H](C)O)C(=O)N[C@@H](CC(N)=O)C(=O)N[C@@H](Cc1c[nH]c2ccccc12)C(=O)N[C@@H](CC(C)C)C(=O)N[C@H](C(=O)N[C@@H](CCC(N)=O)C(=O)N[C@H](C(=O)N[C@@H](CCCCN)C(=O)NCC(=O)N[C@@H](CCCCN)C(=O)N[C@@H](CCCCN)C(=O)N[C@@H](CCCCNC(=O)COCCOCCNC(=O)COCCOCCNC(=O)CC[C@H](NC(=O)CCCCCCCCCCCCCCCCC(=O)O)C(=O)O)C(=O)O)[C@@H](C)O)[C@@H](C)CC [Compound 35] | > 100 nM | 2.0 | 2.4% | 7.6 | 15.7% |  |  |  |  |  |  |  |  |  | Absolute hGIPR internalization (AUC) (human SNAP-tagged GIPR): 14.3; Relative hGIPR internalization (%) (human SNAP-tagged GIPR): 39% and 38%; Emax (human GIPR; COS-7, read-out: Efficacy GIPR (Emax)): 99%; Emax (human GLP-2R; COS-7, read-out: Efficacy GLP-2R (Emax)): 93%; Emax (human GLP-1R; COS-7, read-out: Efficacy GLP-1R (Emax)): 92%
